According to ChEMBL document CHEMBL1127557, “Novel potassium-channel openers: preparation and pharmacological evaluation of racemic and optically active N-(6-amino-3-pyridyl)-N'-bicycloalkyl-N"-cyanoguanidine derivatives” (J Med Chem, 1994):

Legend:
Rattus norvegicus [1] = experiment: Compound was tested for hypotensive activity in anesthetized normotensive rats by intravenous injection. Systolic blood pressure measured 30 min after injection; assay type: functional
Rattus norvegicus [2] = organism: Rattus norvegicus; experiment: Compound was tested for vasorelaxant activity on the basis of ability to relax endothelium-denuded rat aortic strips toned with 20 mM KCl; assay type: functional, Aorta
Rattus norvegicus [3] = organism: Rattus norvegicus; experiment: Compound was tested for oral diuretic effect on spontaneously hypertensive rats by measuring the excretion of sodium at vehicle concentration; assay type: ADME, organism-based, Urine; settings: in vivo
Rattus norvegicus [4] = organism: Rattus norvegicus; experiment: Compound was tested for oral diuretic effect on spontaneously hypertensive rats by measuring the urinary volume at vehicle concentration; assay type: functional, Urine
Rattus norvegicus [5] = experiment: Compound was tested for oral diuretic effect on spontaneously hypertensive rats by measuring the excretion of sodium at 5 mg/kg concentration.; assay type: ADME, organism-based, Urine; design: dose 5 mg/kg, route oral; settings: in vivo
Rattus norvegicus [6] = experiment: Compound was tested for oral diuretic effect on spontaneously hypertensive rats by measuring the urinary volume at 1 mg/kg concentration; assay type: functional, Urine
[7] = Ratio between Na+ and K+ excretion values at a dose of 1 mg/kg; assay type: ADME, organism-based; design: dose 1 mg/kg; settings: in vivo
Rattus norvegicus [8] = experiment: Compound was tested for oral diuretic effect on spontaneously hypertensive rats by measuring the excretion of sodium at 1 mg/kg concentration; assay type: ADME, organism-based, Urine; design: dose 1 mg/kg, route oral; settings: in vivo
[9] = Ratio between Na+ and K+ excretion values at a dose of 5 mg/kg; assay type: ADME, organism-based; design: dose 5 mg/kg; settings: in vivo
Rattus norvegicus [10] = experiment: Compound was tested for oral diuretic effect on spontaneously hypertensive rats by measuring the urinary volume at 5 mg/kg concentration; assay type: functional, Urine
Rattus norvegicus [11] = experiment: Compound was tested for hypotensive activity in anesthetized normotensive rats by intravenous injection, Systolic blood pressure measured 30 min after injection; assay type: functional; settings: 0.5 h
Rattus norvegicus [12] = organism: Rattus norvegicus; experiment: Compound was tested for oral diuretic effect on spontaneously hypertensive rats by measuring the potassium excretion at vehicle concentration; assay type: ADME, organism-based, Urine; settings: in vivo
Rattus norvegicus [13] = experiment: Compound was tested for oral diuretic effect on spontaneously hypertensive rats by measuring the potassium excretion at 1 mg/kg concentration; assay type: ADME, organism-based, Urine; design: dose 1 mg/kg, route oral; settings: in vivo
Rattus norvegicus [14] = experiment: Compound was tested for oral diuretic effect on spontaneously hypertensive rats by measuring the potassium excretion at 5 mg/kg concentration; assay type: ADME, organism-based, Urine; design: dose 5 mg/kg, route oral; settings: in vivo
Rattus norvegicus [15] = experiment: Compound was tested for oral diuretic effect on spontaneously hypertensive rats by measuring the excretion of sodium at 5 mg/kg concentration; assay type: ADME, organism-based, Urine; design: dose 5 mg/kg, route oral; settings: in vivo
[16] = Rattus norvegicus, Blood, iv, 0.5 h, read-out: ED30

SMILES	ED30 (Rattus norvegicus [1]; [16])	IC50 (Rattus norvegicus [2]; Rattus norvegicus, Aorta)	IC50 (Rattus norvegicus [2])	Na+ excretion (Rattus norvegicus [3])	Urinary volume (Rattus norvegicus [4])	Urinary volume (Rattus norvegicus [6])	Ratio [7]	Na+ excretion (Rattus norvegicus [8])	Ratio [9]	Urinary volume (Rattus norvegicus [10])	K+ excretion (Rattus norvegicus [12])	K+ excretion (Rattus norvegicus [13])	K+ excretion (Rattus norvegicus [14])	other results
Cl.N#CN/C(=N\C1CC2CCC1C2)Nc1ccc(N)nc1 (stereo not given)	0.74 mg/kg	593 nM												
N#CN/C(=N\[C@H]1C[C@H]2CC[C@@H]1C2)Nc1ccc(N)nc1	0.1 mg/kg		90 nM											
C[C@]12CC[C@H](C[C@@H]1/N=C(\NC#N)Nc1ccc(N)nc1)C2.Cl			71 nM											ED30 (Rattus norvegicus [1]): 0.28 mg/kg
C[C@]12CC[C@H](C[C@@H]1/N=C(\NC#N)Nc1ccc(N)nc1)C2	0.18 mg/kg	118 nM												
Cl.N#CN/C(=N\[C@@H]1CC2CCC1C2)Nc1ccc(N)nc1 (mixture of isomers)				1.357 m equiv 5hr-1 kg-1	5.15 ml kg-1 5hr-1	8.77 ml kg-1 5hr-1	1.08	1.523 m equiv 5hr-1 kg-1	0.5	4.68 ml kg-1 5hr-1	1.078 m equiv 5hr-1 kg-1	1.35 m equiv 5hr-1 kg-1	1.249 m equiv 5hr-1 kg-1	Na+ excretion (Rattus norvegicus [5]): 0.694 m equiv 5hr-1 kg-1; ED30 (Rattus norvegicus [11]): 0.51 mg/kg
Cl.N#CN/C(=N\[C@H]1C[C@H]2CC[C@@H]1C2)Nc1ccc(N)nc1 (racemic)	0.17 mg/kg		392 nM	1.072 m equiv 5hr-1 kg-1	6.84 ml kg-1 5hr-1	5.53 ml kg-1 5hr-1	1.54	0.89 m equiv 5hr-1 kg-1	1.27	18.37 ml kg-1 5hr-1	0.8 m equiv 5hr-1 kg-1	0.646 m equiv 5hr-1 kg-1	1.46 m equiv 5hr-1 kg-1	Na+ excretion (Rattus norvegicus [15]): 1.865 m equiv 5hr-1 kg-1
C[C@]12CC[C@H](C[C@@H]1/N=C(\NC#N)Nc1ccc(N)nc1)C2.Cl (racemic)	0.2 mg/kg		79 nM	1.072 m equiv 5hr-1 kg-1	6.84 ml kg-1 5hr-1	6.92 ml kg-1 5hr-1	1.08	0.8 m equiv 5hr-1 kg-1	0.59	7.31 ml kg-1 5hr-1	0.8 m equiv 5hr-1 kg-1	0.747 m equiv 5hr-1 kg-1	0.515 m equiv 5hr-1 kg-1	Na+ excretion (Rattus norvegicus [15]): 0.311 m equiv 5hr-1 kg-1
N#CN/C(=N\[C@@H]1C[C@H]2CC[C@@H]1C2)Nc1ccc(N)nc1 (stereo in doubt; (+)-9)			267 nM											ED30 (Rattus norvegicus [1]): 0.4 mg/kg
N#CN/C(=N\[C@@H]1C[C@H]2CC[C@@H]1C2)Nc1ccc(N)nc1 (stereo in doubt; (-)-9)	0.57 mg/kg	278 nM												
CC1(C)Oc2ccc(C#N)cc2[C@@H](N2CCCC2=O)[C@@H]1O [CROMAKALIM]	0.11 mg/kg	110 nM												
CC(N/C(=N\C#N)Nc1ccncc1)C(C)(C)C (stereo not given) [PINACIDIL ANHYDROUS]	0.15 mg/kg	380 nM		1.357 m equiv 5hr-1 kg-1	5.15 ml kg-1 5hr-1	7.62 ml kg-1 5hr-1	0.78	1.27 m equiv 5hr-1 kg-1	0.12	2.56 ml kg-1 5hr-1	1.078 m equiv 5hr-1 kg-1	1.546 m equiv 5hr-1 kg-1	0.584 m equiv 5hr-1 kg-1	Na+ excretion (Rattus norvegicus [15]): 0.078 m equiv 5hr-1 kg-1
